Laboratory results: ChEMBL document CHEMBL5634148, “Synthesis and evaluation of novel pleuromutilin derivatives targeting the 50S ribosomal subunit for antibacterial ability” (Eur J Med Chem, 2023)
Converted amounts (≈) assume the structure as drawn. The source made the active and inactive calls. No cut-off for these calls is given here.

What was measured:
[1] = Cytotoxicity against human HepG2 cells assessed as cell viability incubated for 6 hrs by CCK8 assay; format: toxicity, cell-based
[2] = tested on: Staphylococcus aureus; experiment: Antibacterial activity against methicillin-resistant Staphylococcus aureus ATCC 29213 assessed as reduction in bacterial count at 6 times MIC incubated for 24 hrs by time kill assay; format: functional
[3] = tested on: Staphylococcus aureus; experiment: Antibacterial activity against Staphylococcus aureus assessed as reduction in bacterial count at 1 to 6 times MIC incubated for 24 hrs by time kill assay; format: functional
[4] = tested on: Staphylococcus aureus; experiment: Bactericidal activity against methicillin-resistant Staphylococcus aureus ATCC 29213 incubated for 24 hrs by time kill assay; format: functional, organism-based
[5] = tested on: Staphylococcus aureus; experiment: Bactericidal activity against Staphylococcus aureus incubated for 24 hrs by time kill assay; format: functional, organism-based
[6] = tested on: Staphylococcus aureus; experiment: Antibacterial activity against methicillin-resistant Staphylococcus aureus BNCC 337371 assessed as bacterial growth inhibition incubated for 18 to 24 hrs by NCCLS based assay; format: functional; settings: time 18-24 hrs
[7] = tested on: Staphylococcus aureus; experiment: Antibacterial activity against Staphylococcus aureus ATCC 25923 assessed as bacterial growth inhibition incubated for 18 to 24 hrs by NCCLS based assay; format: functional; settings: time 18-24 hrs
[8] = tested on: Streptococcus agalactiae; experiment: Antibacterial activity against Streptococcus agalactiae assessed as bacterial growth inhibition incubated for 18 to 24 hrs by NCCLS based assay; format: functional; settings: time 18-24 hrs
[9] = tested on: Pasteurella multocida; experiment: Antibacterial activity against Pasteurella multocida CVCC 1659 assessed as bacterial growth inhibition incubated for 18 to 24 hrs by NCCLS based assay; format: functional; settings: time 18-24 hrs
[10] = tested on: Escherichia coli; experiment: Antibacterial activity against Escherichia coli CICC 10389 assessed as bacterial growth inhibition incubated for 18 to 24 hrs by NCCLS based assay; format: functional; settings: time 18-24 hrs
[11] = tested on: Staphylococcus aureus; experiment: Drug resistance against Staphylococcus aureus assessed as fold increase in MIC measured after 21 passages relative to control; format: functional
[12] = Cytotoxicity against HEK293T cells assessed as cell viability at 200 uM incubated for 6 hrs by CCK8 assay relative to control; format: toxicity, cell-based, HEK-293T; settings: human, read-out: Activity
[13] = Toxicity in Wistar rat assessed as trembling at 2000 mg/kg, po measured for 24 hrs; format: organism-based; settings: in vivo
[14] = Toxicity in Wistar rat assessed as piloerection at 2000 mg/kg, po measured for 24 hrs; format: organism-based; settings: in vivo
[15] = Toxicity in Wistar rat assessed as trembling at 2000 mg/kg, po measured for 48 hrs; format: organism-based; settings: in vivo
[16] = Toxicity in Wistar rat assessed as piloerection at 2000 mg/kg, po measured for 48 hrs; format: organism-based; settings: in vivo
[17] = Toxicity in Wistar rat assessed as water consumption at 2000 mg/kg, po measured for 14 days; format: organism-based; settings: in vivo, 336 h, time 14 day
[18] = Toxicity in Wistar rat assessed as fatality at 2000 mg/kg, po measured for 7 days; format: organism-based; settings: in vivo, 168 h, time 7 day
[19] = Toxicity in Wistar rat assessed as absolute heart weight at 2000 mg/kg, po measured after 14 days (reference value: 0.86 +/- 0.09 g); format: organism-based; settings: in vivo, 336 h, time 14 day
[20] = Toxicity in Wistar rat assessed as absolute liver weight at 2000 mg/kg, po measured after 14 days (reference value: 10.02 +/- 0.44 g); format: organism-based; settings: in vivo, 336 h, time 14 day
[21] = Toxicity in Wistar rat assessed as absolute spleen weight at 2000 mg/kg, po measured after 14 days (reference value: 0.61 +/- 0.05 g); format: organism-based; settings: in vivo, 336 h, time 14 day
[22] = Toxicity in Wistar rat assessed as absolute lungs weight at 2000 mg/kg, po measured after 14 days (reference value: 1.38 +/- 0.17 g); format: organism-based; settings: in vivo, 336 h, time 14 day
[23] = Toxicity in Wistar rat assessed as absolute kidneys weight at 2000 mg/kg, po measured after 14 days (reference value: 1.77 +/- 0.16 g); format: organism-based; settings: in vivo, 336 h, time 14 day
[24] = Toxicity in Wistar rat assessed as relative heart weight at 2000 mg/kg, po measured after 14 days (reference value: 0.36 +/- 0.03 %); format: organism-based; settings: in vivo, 336 h, time 14 day
[25] = Toxicity in Wistar rat assessed as relative spleen weight at 2000 mg/kg, po measured after 14 days (reference value: 0.20 +/- 0.07 %); format: organism-based; settings: in vivo, 336 h, time 14 day
[26] = Toxicity in Wistar rat assessed as relative kidneys weight at 2000 mg/kg, po measured after 14 days (reference value: 0.91 +/- 0.18 %); format: organism-based; settings: in vivo, 336 h, time 14 day
[27] = Toxicity in Wistar rat assessed as relative uterus weight at 2000 mg/kg, po measured after 14 days (reference value: 0.45 +/- 0.03 %); format: organism-based; settings: in vivo, 336 h, time 14 day
[28] = Toxicity in Wistar rat assessed as congestion in hepatic central vein at 2000 mg/kg, po measured for 14 days by H and E staining based analysis; format: organism-based; settings: in vivo, 336 h, time 14 day
[29] = Toxicity in Wistar rat assessed as hepatocyte fatty degeneration at 2000 mg/kg, po measured for 14 days by H and E staining based analysis; format: organism-based; settings: hepatocytes, 336 h, time 14 day
[30] = Toxicity in Wistar rat assessed as proliferation of oval cells in liver at 2000 mg/kg, po measured for 14 days by H and E staining based analysis; format: organism-based; settings: in vivo, 336 h, time 14 day
[31] = Toxicity in Wistar rat assessed as degeneration of alveolar epithelial cells in lungs at 2000 mg/kg, po measured for 14 days by H and E staining based analysis; format: organism-based; settings: in vivo, 336 h, time 14 day
[32] = Toxicity in Wistar rat assessed as necrosis of alveolar epithelial cells in lungs at 2000 mg/kg, po measured for 14 days by H and E staining based analysis; format: organism-based; settings: in vivo, 336 h, time 14 day
[33] = Toxicity in Wistar rat assessed as vascular congestion in lungs at 2000 mg/kg, po measured for 14 days by H and E staining based analysis; format: organism-based; settings: in vivo, 336 h, time 14 day
[34] = Toxicity in Wistar rat assessed as capillary congestion in lungs at 2000 mg/kg, po measured for 14 days by H and E staining based analysis; format: organism-based; settings: in vivo, 336 h, time 14 day
[35] = Toxicity in neutropenic Balb/c mouse model infected with methicillin-resistant Staphylococcus aureus assessed as animal survival at 40 mg/kg, iv measured for 7 days; format: organism-based; settings: in vivo, 168 h, time 7 day
[36] = tested on: Staphylococcus aureus; experiment: Antibacterial activity against methicillin-resistant Staphylococcus aureus infected in neutropenic Balb/c mouse model assessed as reduction in bacterial load in lungs at 40 mg/kg, iv measured after 5 days; format: functional; settings: time 5 day
[37] = tested on: Staphylococcus aureus; experiment: Antibacterial activity against methicillin-resistant Staphylococcus aureus infected in neutropenic Balb/c mouse model assessed as reduction in bacterial load in kidney at 40 mg/kg, iv measured after 5 days; format: functional, organism-based; settings: time 5.0 day
[38] = tested on: Staphylococcus aureus; experiment: Antibacterial activity against methicillin-resistant Staphylococcus aureus infected in neutropenic Balb/c mouse model assessed as reduction in bacterial load in liver at 40 mg/kg, iv measured after 5 days; format: functional, organism-based; settings: time 5.0 day
[39] = tested on: Staphylococcus aureus; experiment: Antibacterial activity against methicillin-resistant Staphylococcus aureus infected in neutropenic Balb/c mouse model assessed as reduction in inflammatory cell infiltration in lungs at 40 mg/kg, iv measured after 5 days; format: functional, organism-based; settings: time 5.0 day
[40] = tested on: Staphylococcus aureus; experiment: Antibacterial activity against methicillin-resistant Staphylococcus aureus infected in neutropenic Balb/c mouse model assessed as thickening of alveolar septa in lungs at 40 mg/kg, iv measured after 5 days; format: functional, organism-based; settings: time 5.0 day
[41] = tested on: Staphylococcus aureus; experiment: Antibacterial activity against methicillin-resistant Staphylococcus aureus infected in neutropenic Balb/c mouse model assessed as thickening of alveolar walls in lungs at 40 mg/kg, iv measured after 5 days; format: functional, organism-based; settings: time 5.0 day

C=C[C@]1(C)C[C@@H](OC(=O)CSc2ncnc(N(C)C)n2)[C@]2(C)[C@H](C)CC[C@]3(CCC(=O)[C@H]32)[C@@H](C)[C@@H]1O
CC50 at 6 h [1]: 84.6 µM | log(activity) [2]: 1.72 | log(activity) [3]: 2.5 | Activity [4]: Dose-Dependent Effect | Activity [5]: Dose-Dependent Effect | MIC [6]: 0.031 µg/mL (≈ 0.06 µM) | MIC [7]: 0.031 µg/mL (≈ 0.06 µM) | MIC [8]: 0.063 µg/mL (≈ 0.122 µM) | MIC [9]: ≥ 64 µg/mL | MIC [10]: ≥ 64 µg/mL | fold change (FC) [11]: 16 | viability at 6 h, 200 µM [12]: 66.9% | Activity [13]: Toxic | Activity [14]: Toxic | Activity [15]: Non-Toxic | Activity [16]: Non-Toxic | Activity [17]: Toxic | Activity [18]: Non-Toxic | Activity [19]: 0.75 g | Activity [20]: 9.09 g | Activity [21]: 0.43 g | Activity [22]: 1.21 g | Activity [23]: 1.85 g | Activity [24]: 0.34% | Activity [25]: 0.26% | Activity [26]: 0.74% | Activity [27]: 0.29% | Activity [28]: Toxic | Activity [29]: Toxic | Activity [30]: Toxic | Activity [31]: Toxic | Activity [32]: Toxic | Activity [33]: Toxic | Activity [34]: Toxic | Activity [35]: 70% | Activity [36]: 2.52 log10CFU/ml | Activity [37]: Active | Activity [38]: Active | Activity [39]: Active | Activity [40]: Active | Activity [41]: Active
